The text below walks through data of patent US20120121540A1 (priority 2007, published 2012).

A short description of the assay: HCV replicon assay (luciferase reporter, ET cell line). The class given is cell-based. To be noted: Hepatitis C virus, HCV replicon luciferase activity in ET cells. In a few lines:
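ET cells carry a stable luciferase-ubiquitin-neo/NS3-5B subgenomic HCV replicon with adaptive mutations. Compounds (0.1 nM to […], 0.5% DMSO) were added 24 h after plating, and luciferase was read 48-72 h later. EC50 came from 10-point 2-fold dilutions fitted to a Hill equation; TC50 was measured in parallel by WST-1.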

Structures are written as SMILES.

In turn, `Cc1noc(C2CCN(C(=O)c3nc4c(C(F)(F)F)cc(-c5cn[nH]c5)cn4c3Cl)C2)n1` (stereo not drawn) [Compound 476, [3-Chloro-6-(1H-pyrazol-4-yl)-8-trifluoromethyl-imidazo[1,2-a]pyridin-2-yl]-[3-(3-methyl-[1,2,4]oxadiazol-5-yl)-pyrrolidin-1-yl]-methanone] came in with an inhibition at 10 µM of 72%.
Then `O=C(c1nc2c(C(F)(F)F)cc(-c3ccoc3)cn2c1Cl)N1CCC(c2ccccc2)=N1` [Compound 477, (3-Chloro-6-furan-3-yl-8-trifluoromethyl-imidazo[1,2-a]pyridin-2-yl)-(3-phenyl-4,5-dihydro-pyrazol-1-yl)-methanone], with 97.6%; and `CC(C)(C)OC(=O)N[C@@H]1CCN(C(=O)c2nc3c(C(F)(F)F)cc(-c4ccoc4)cn3c2Cl)C1` [Compound 478, [1-(3-Chloro-6-furan-3-yl-8-trifluoromethyl-imidazo[1,2-a]pyridine-2-carbonyl)-pyrrolidin-3-yl]-carbamic acid tert-butyl ester], with 4.9%.
The same measure for `CS(=O)(=O)N[C@@H]1CCN(C(=O)c2nc3c(C(F)(F)F)cc(-c4ccoc4)cn3c2Cl)C1` [Compound 480, N-[1-(3-Chloro-6-furan-3-yl-8-trifluoromethyl-imidazo[1,2-a]pyridine-2-carbonyl)-pyrrolidin-3-yl]-methanesulfonamide]: 47.7%; for `O=C1OC(c2ccccc2)CN1Cc1cn2cc(-c3ccoc3)cc(C(F)(F)F)c2n1` (stereo not drawn) [Compound 483, 3-(6-Furan-3-yl-8-trifluoromethyl-imidazo[1,2-a]pyridin-2-ylmethyl)-5-phenyl-oxazolidin-2-one]: 99.9%; for `O=C(NCc1cccs1)c1nc2c(C(F)(F)F)cc(-c3cn[nH]c3)cn2c1-c1cn[nH]c1` [Compound 485, 3,6-Bis-(1H-pyrazol-4-yl)-8-trifluoromethyl-imidazo[1,2-a]pyridine-2-carboxylic acid (thiophen-2-ylmethyl)-amide]: 58.9%.
Then `O=C(c1nc2c(C(F)(F)F)cc(-c3cn[nH]c3)cn2c1-c1cn[nH]c1)N1CCC(c2cccc(F)c2)C1` (stereo not drawn) [Compound 486, [3,6-Bis-(1H-pyrazol-4-yl)-8-trifluoromethyl-imidazo[1,2-a]pyridin-2-yl]-[3-(3-fluoro-phenyl)-pyrrolidin-1-yl]-methanone], with 65.8%; and `O=C(c1nc2c(C(F)(F)F)cc(-c3ccoc3)cn2c1Cl)N1CCC1c1ccccc1` (stereo not drawn) [Compound 487, (3-Chloro-6-furan-3-yl-8-trifluoromethyl-imidazo[1,2-a]pyridin-2-yl)-(2-phenyl-azetidin-1-yl)-methanone], with 94.2%.
For the compound `O=C(c1nc2c(C(F)(F)F)cc(-c3ccoc3)cn2c1Cl)N1CC(c2ccc(C(F)(F)F)cc2)C1` [Compound 488], at 10 µM the inhibition was 60.2%.
The same measure for `CC(C)(C)OC(=O)NC1CN(C(=O)c2nc3c(C(F)(F)F)cc(-c4ccoc4)cn3c2Cl)C1` [Compound 489, [1-(3-Chloro-6-furan-3-yl-8-trifluoromethyl-imidazo[1,2-a]pyridine-2-carbonyl)-azetidin-3-yl]-carbamic Acid Tert-butyl Ester]: 33%; for `CS(=O)(=O)NC1CN(C(=O)c2nc3c(C(F)(F)F)cc(-c4ccoc4)cn3c2Cl)C1` [Compound 491, N-[1-(3-Chloro-6-furan-3-yl-8-trifluoromethyl-imidazo[1,2-a]pyridine-2-carbonyl)-azetidin-3-yl]-methanesulfonamide]: 92.4%.
The same measure for `O=C(c1nc2c(C(F)(F)F)cc(-c3ccoc3)cn2c1Cl)N1CC(NS(=O)(=O)c2ccccc2)C1` [Compound 492, N-[1-(3-Chloro-6-furan-3-yl-8-trifluoromethyl-imidazo[1,2-a]pyridine-2-carbonyl)-azetidin-3-yl]-benzenesulfonamide]: 97.4%.
Regarding `O=C(c1nc2c(C(F)(F)F)cc(-c3ccoc3)cn2c1Cl)N1CC(NS(=O)(=O)Cc2ccccc2)C1` [Compound 493, N-[1-(3-Chloro-6-furan-3-yl-8-trifluoromethyl-imidazo[1,2-a]pyridine-2-carbonyl)-azetidin-3-yl]-C-phenyl-methanesulfonamide], the inhibition at 10 µM stood at 91.4%.
Then `O=C(c1nc2c(C(F)(F)F)cc(-c3ccoc3)cn2c1Cl)N1CC(NS(=O)(=O)c2ccccc2F)C1` [Compound 494, N-[1-(3-Chloro-6-furan-3-yl-8-trifluoromethyl-imidazo[1,2-a]pyridine-2-carbonyl)-azetidin-3-yl]-2-fluoro-benzenesulfonamide], with 88.5%.
As to `O=C(c1nc2c(C(F)(F)F)cc(-c3ccoc3)cn2c1Cl)N1CC(NS(=O)(=O)c2cccc(F)c2)C1` [Compound 495, N-[1-(3-Chloro-6-furan-3-yl-8-trifluoromethyl-imidazo[1,2-a]pyridine-2-carbonyl)-azetidin-3-yl]-3-fluoro-benzenesulfonamide], 10 µM produced 94.2% inhibition.
Then `O=C(c1nc2c(C(F)(F)F)cc(-c3ccoc3)cn2c1Cl)N1CC(NS(=O)(=O)c2ccc(F)cc2)C1` [Compound 496, N-[1-(3-Chloro-6-furan-3-yl-8-trifluoromethyl-imidazo[1,2-a]pyridine-2-carbonyl)-azetidin-3-yl]-4-fluoro-benzenesulfonamide], with 94.3%; and `CC(C)S(=O)(=O)NC1CN(C(=O)c2nc3c(C(F)(F)F)cc(-c4ccoc4)cn3c2Cl)C1` [Compound 497, Propane-2-sulfonic acid [1-(3-chloro-6-furan-3-yl-8-trifluoromethyl-imidazo[1,2-a]pyridine-2-carbonyl)-azetidin-3-yl]-amide], with 97.8%.
Then `O=C(c1nc2c(C(F)(F)F)cc(-c3ccoc3)cn2c1Cl)N1CC(NS(=O)(=O)C2CC2)C1` [Compound 498, Cyclopropanesulfonic Acid[1-(3-chloro-6-furan-3-yl-8-trifluoromethyl-imidazo[1,2-a]pyridine-2-carbonyl)-azetidin-3-yl]-amide], with 95%; and `O=C(c1nc2c(C(F)(F)F)cc(-c3ccoc3)cn2c1Cl)N1CC(NS(=O)(=O)c2cccs2)C1` [Compound 499, Thiophene-2-sulfonic acid [1-(3-chloro-6-furan-3-yl-8-trifluoromethyl-imidazo[1,2-a]pyridine-2-carbonyl)-azetidin-3-yl]-amide], with 93.4%; and `CCS(=O)(=O)NC1CN(C(=O)c2nc3c(C(F)(F)F)cc(-c4ccoc4)cn3c2Cl)C1` [Compound 500, Ethanesulfonic Acid[1-(3-chloro-6-furan-3-yl-8-trifluoromethyl-imidazo[1,2-a]pyridine-2-carbonyl)-azetidin-3-yl]-amide], with 98%.
In turn, `CN(C)S(=O)(=O)NC1CN(C(=O)c2nc3c(C(F)(F)F)cc(-c4ccoc4)cn3c2Cl)C1` [Compound 504] gave an inhibition at 10 µM of 98.9%.
The same measure for `CS(=O)(=O)N1CC(NC(=O)c2nc3c(C(F)(F)F)cc(-c4ccoc4)cn3c2Cl)C1` [Compound 510, 3-Chloro-6-furan-3-yl-8-trifluoromethyl-imidazo[1,2-a]pyridine-2-carboxylic Acid (1-methanesulfonyl-azetidin-3-yl)-amide]: 24%; for `O=C(NC1CN(S(=O)(=O)c2ccccc2)C1)c1nc2c(C(F)(F)F)cc(-c3ccoc3)cn2c1Cl` [Compound 511, 3-Chloro-6-furan-3-yl-8-trifluoromethyl-imidazo[1,2-a]pyridine-2-carboxylic Acid (1-benzenesulfonyl-azetidin-3-yl)-amide]: 98.6%.
Then `O=C(NC1CN(C(=O)Cc2ccccc2)C1)c1nc2c(C(F)(F)F)cc(-c3ccoc3)cn2c1Cl` [Compound 514, 3-Chloro-6-furan-3-yl-8-trifluoromethyl-imidazo[1,2-a]pyridine-2-carboxylic Acid (1-phenylacetyl-azetidin-3-yl)-amide], with 6.6%.
Then `CS(=O)(=O)NC1CN(C(=O)c2cn3cc(-c4ccoc4)cc(C(F)(F)F)c3n2)C1` [Compound 519, N-[1-(6-Furan-3-yl-8-trifluoromethyl-imidazazo[1,2-a]pyridine-2-carbonyl)-azetidin-3-yl]-methanesulfonamide], with 84.7%; and `CS(=O)(=O)NC1CN(C(=O)c2nc3c(C(F)(F)F)cc(-c4cn[nH]c4)cn3c2Cl)C1` [Compound 521, N-{1-[3-Chloro-6-(1H-pyrazol-4-yl)-8-trifluoromethyl-imidazo[1,2-a]pyridine-2-carbonyl]-azetidin-3-yl}-methanesulfonamide], with 72.8%; and `CS(=O)(=O)NC1CN(C(=O)c2nc3c(C(F)(F)F)cc(-c4cn[nH]c4)cn3c2Br)C1` [Compound 522, N-{1-[3-Bromo-6-(1H-pyrazol-4-yl)-8-trifluoromethyl-imidazo[1,2-a]pyridine-2-carbonyl]-azetidin-3-yl}-methanesulfonamide], with 88.6%.
Take `O=C(c1nc2c(C(F)(F)F)cc(-c3cc[nH]c3)cn2c1Cl)N1CCC(c2cccc(F)c2)C1` (stereo not drawn) [Compound 524, [3-Chloro-6-(1H-pyrrol-3-yl)-8-trifluoromethyl-imidazo[1,2-a]pyridin-2-yl]-[3-(3-fluoro-phenyl)-pyrrolidin-1-yl]methanone]: at 10 µM the inhibition was 91%.
The compound `O=C(c1nc2c(C(F)(F)F)cc(-c3c[nH]c4ccccc34)cn2c1Cl)N1CCC(c2cccc(F)c2)C1` (stereo not drawn) [Compound 525, [3-Chloro-6-(1H-indol-3-yl)-8-trifluoromethyl-imidazo[1,2-a]pyridin-2-yl]-[3-(3-fluoro-phenyl)-pyrrolidin-1-yl]methanone] showed an inhibition at 10 µM of 23.4%.
For the compound `O=C(c1nc2c(C(F)(F)F)cc(-c3ccoc3)cn2c1Cl)N1CCN(c2ccccc2F)CC1` [Compound 529, (3-Chloro-6-furan-3-yl-8-trifluoromethyl-imidazo[1,2-a]pyridine-2-yl)-[4-(2-fluoro-phenyl)-piperazin-1-yl]-methanone], the inhibition at 10 µM came to 78.9%.
